# Measured values published in patent US20140329863A1 (priority 2011, published 2014).
# How the values were obtained:
# [1] = Metabolite identification in human, mouse, rat and dog liver microsomes; assay type: in vitro ADME
# Description: Samples were injected onto a BetaBasic C18 column and eluted with a gradient elution of mobile phase B (0.1% formic acid in ACN) from 5% to 95% over 30 min. For IND24-containing samples, the transitions monitored were 344→226 (parent); 360→226 and 360→242 (monohydroxylation); and 376→242 and 376→258 (dihydroxylation). […] Plasma and brain homogenate samples from FVB mice in single-dose (10 mg/kg) pharmacokinetic studies were similarly scanned to detect potential hydroxylated metabolites.
# Metabolites were separated on a Kinetex 100-Å column (2.6 μm, 100×2.1 mm, Phenomenex, Torrance, Calif.) at ambient temperature. […]
# The Orbitrap mass analyzer was calibrated according to the manufacturer's directions using a mixture of caffeine, Met-Arg-Phe-Ala (MRFA) peptide and Ultramark 1621. The parent compounds and their metabolites were detected by full scan mass analysis from m/z 150-1000 at a resolving power of 60,000 [at m/z 400, full width at half maximum (FWHM); 1-s acquisition] with data-dependent MS/MS analyses triggered by the most abundant ion. […] The data obtained was analyzed using Xcalibur v2.1 software (ThermoScientific; Waltham Mass.). Four-decimal monoisotopic masses of the parent compounds and their oxidative metabolites calculated using ChemBioDraw Ultra software version 11.0 (CambridgeSoft; Cambridge, Mass.) were used to interpret further the fragment ions.
# [2] = Fraction unbound in cell-culture media; assay type: in vitro ADME; details: 1 μM; mean ± SD, n = 3
# [3] = CYP phenotyping in human liver microsomes, no inhibitor (negative control, maximum metabolism); assay type: in vitro ADME
# [4] = target: T1, CYP1A2 (Homo sapiens, UniProt P05177); experiment: CYP phenotyping in human liver microsomes, furafylline; assay type: in vitro ADME; details: for CYP Involvement: CYP1A2, NADPH + Furafylline; for % Disappearance / Measured Conc. / Δ % Disappearance: irreversible incubation condition, NADPH + Furafylline
# T1 construct: tissue BD Biosciences; host or cells: pooled human liver microsomes
# T1 sequence (P05177 1-516): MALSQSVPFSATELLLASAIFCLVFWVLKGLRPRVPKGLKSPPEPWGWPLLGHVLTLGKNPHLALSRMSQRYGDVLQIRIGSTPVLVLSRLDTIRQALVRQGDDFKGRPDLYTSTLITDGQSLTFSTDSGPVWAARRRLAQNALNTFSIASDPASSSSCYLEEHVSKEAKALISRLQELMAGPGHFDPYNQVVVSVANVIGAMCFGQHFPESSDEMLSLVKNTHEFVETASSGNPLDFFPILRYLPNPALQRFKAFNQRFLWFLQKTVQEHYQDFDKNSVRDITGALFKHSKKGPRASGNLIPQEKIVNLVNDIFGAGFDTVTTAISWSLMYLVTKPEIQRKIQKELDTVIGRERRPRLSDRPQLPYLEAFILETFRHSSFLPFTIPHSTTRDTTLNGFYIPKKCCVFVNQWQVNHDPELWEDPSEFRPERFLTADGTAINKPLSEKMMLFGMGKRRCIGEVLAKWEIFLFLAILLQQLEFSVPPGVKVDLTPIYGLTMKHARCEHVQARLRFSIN
# [5] = target: T2, CYP2C9 (Homo sapiens, UniProt P11712); experiment: CYP phenotyping in human liver microsomes, sulphaphenazol; assay type: in vitro ADME; details: for CYP Involvement: CYP2C9, NADPH + Sulphaphenazol; for % Disappearance / Measured Conc. / Δ % Disappearance: reversible incubation condition, NADPH + Sulphaphenazol
# T2 construct: tissue BD Biosciences; host or cells: pooled human liver microsomes
# T2 sequence (P11712 whole entry): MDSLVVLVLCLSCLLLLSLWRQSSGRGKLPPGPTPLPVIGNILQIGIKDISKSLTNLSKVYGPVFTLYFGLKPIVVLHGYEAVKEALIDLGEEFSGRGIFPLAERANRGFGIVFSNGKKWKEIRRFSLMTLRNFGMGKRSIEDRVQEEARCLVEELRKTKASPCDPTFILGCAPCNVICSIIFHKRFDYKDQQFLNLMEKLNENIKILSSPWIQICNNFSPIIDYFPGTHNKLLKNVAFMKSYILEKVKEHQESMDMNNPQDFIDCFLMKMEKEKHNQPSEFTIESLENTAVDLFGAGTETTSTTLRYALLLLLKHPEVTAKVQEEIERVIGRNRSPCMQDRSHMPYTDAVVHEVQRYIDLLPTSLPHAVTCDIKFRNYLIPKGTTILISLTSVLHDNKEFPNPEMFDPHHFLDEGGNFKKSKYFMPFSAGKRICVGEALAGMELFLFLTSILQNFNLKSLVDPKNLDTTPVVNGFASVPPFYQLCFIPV
# [6] = target: T3, CYP2D6 (Homo sapiens, UniProt P10635); experiment: CYP phenotyping in human liver microsomes, quinidine; assay type: in vitro ADME; details: for CYP Involvement: CYP2D6, NADPH + Quinidine; for % Disappearance / Measured Conc. / Δ % Disappearance: reversible incubation condition, NADPH + Quinidine
# T3 construct: tissue BD Biosciences; host or cells: pooled human liver microsomes
# T3 sequence (P10635 whole entry): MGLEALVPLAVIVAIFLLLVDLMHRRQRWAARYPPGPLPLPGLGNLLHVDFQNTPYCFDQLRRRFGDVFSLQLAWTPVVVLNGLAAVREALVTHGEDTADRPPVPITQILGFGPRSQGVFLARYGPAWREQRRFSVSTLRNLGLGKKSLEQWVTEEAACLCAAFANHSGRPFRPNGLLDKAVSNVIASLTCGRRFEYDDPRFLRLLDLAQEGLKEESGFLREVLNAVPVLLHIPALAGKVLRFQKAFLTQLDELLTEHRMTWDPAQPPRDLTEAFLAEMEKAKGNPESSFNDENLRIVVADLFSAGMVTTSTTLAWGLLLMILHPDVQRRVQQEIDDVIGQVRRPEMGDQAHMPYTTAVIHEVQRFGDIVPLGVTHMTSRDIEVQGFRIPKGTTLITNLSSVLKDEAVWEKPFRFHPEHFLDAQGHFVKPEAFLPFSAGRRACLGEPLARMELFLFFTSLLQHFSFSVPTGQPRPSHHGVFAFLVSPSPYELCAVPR
# [7] = target: T4, CYP3A4 (Homo sapiens, UniProt P08684); experiment: CYP phenotyping in human liver microsomes, ketoconazole; assay type: in vitro ADME; details: for CYP Involvement: CYP3A4, NADPH + Ketoconazole; for % Disappearance / Measured Conc. / Δ % Disappearance: reversible incubation condition, NADPH + Ketoconazole
# T4 construct: tissue BD Biosciences; host or cells: pooled human liver microsomes
# T4 sequence (P08684 whole entry): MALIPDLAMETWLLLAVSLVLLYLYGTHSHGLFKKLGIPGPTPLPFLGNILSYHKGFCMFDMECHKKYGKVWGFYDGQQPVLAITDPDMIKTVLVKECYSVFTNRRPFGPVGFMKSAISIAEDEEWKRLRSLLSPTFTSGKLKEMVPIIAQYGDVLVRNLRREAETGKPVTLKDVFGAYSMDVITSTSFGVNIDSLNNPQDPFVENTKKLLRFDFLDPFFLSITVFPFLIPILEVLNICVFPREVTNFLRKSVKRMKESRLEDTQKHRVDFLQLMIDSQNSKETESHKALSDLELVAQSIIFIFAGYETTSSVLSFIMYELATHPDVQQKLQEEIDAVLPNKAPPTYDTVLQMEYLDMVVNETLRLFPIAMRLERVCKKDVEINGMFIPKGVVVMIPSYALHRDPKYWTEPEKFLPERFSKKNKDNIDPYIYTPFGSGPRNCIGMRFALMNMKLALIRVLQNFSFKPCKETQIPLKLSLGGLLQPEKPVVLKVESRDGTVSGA
# [8] = 1 and 10 μM
# [9] = in vitro; details: FVB, mouse, 20% brain homogenate, pH 7.4, nonbound free fraction in brain, 1 and 10 μM
# [10] = Binding in rat plasma
# [11] = physchem
# [12] = irreversible incubation condition, maximum metabolism, NADPH/No Inhibitor
# [13] = irreversible incubation condition, negative control, No NADPH/No Inhibitor
# [14] = reversible incubation condition, maximum metabolism, NADPH/No Inhibitor
# [15] = reversible incubation condition, negative control, No NADPH/No Inhibitor
# [16] = cell culture media, plasma or biological fluid
# [17] = pH 2 (HCl) buffer, pH 2, simulated gastric fluid
# [18] = pH 7.4 (phosphate) buffer, pH 7.4, aqueous buffer
SMILES,major metabolites [1],"Unbound (%), Cell-culture Media [2]","% Disappearance [3, 12]","Measured Conc. [3, 12]","Δ % Disappearance [3, 12]","Measured Conc. [3, 13]","% Disappearance [3, 14]","Measured Conc. [3, 14]","Δ % Disappearance [3, 14]","% Disappearance [3, 15]","Measured Conc. [3, 15]",CYP Involvement [4],% Disappearance [4],Measured Conc. [4],Δ % Disappearance [4],CYP Involvement [5],solubility ([11]; FaSSIF),"solubility [11, 16]","solubility [11, 17]","solubility [11, 18]",further results
"Cc1cccc(Nc2nc(-c3ccc(-c4ccccc4)cc3)cs2)n1 [IND24, (4-Biphenyl-4-yl-thiazol-2-yl)-(6-methyl-pyridin-2-yl)-amine]",ring hydroxylation,25.7 ± 4.93%,0 (−18) %,0.733 µM,0%,0.622 µM,0%,0.655 µM,0%,0%,0.654 µM,Unlikely (unlikely for values <5),0 (−23) %,0.766 µM,0%,Unlikely (unlikely for values <5),,,,,"% Disappearance [5]: 14%; Measured Conc. [5]: 0.566 µM; Δ % Disappearance [5]: 0 (−14) %; CYP Involvement [6]: Unlikely (unlikely for values <5); % Disappearance [6]: 15%; Measured Conc. [6]: 0.555 µM; Δ % Disappearance [6]: 0 (−15) %; CYP Involvement [7]: Unlikely (unlikely for values <5); % Disappearance [7]: 15%; Measured Conc. [7]: 0.557 µM; Δ % Disappearance [7]: 0 (−15) %; brain tissue binding [8]: 92-93%; fraction unbound at 4 h [9]: 0.06 to 0.09; Percentage binding, Rat plasma, 1 μM [10]: 93.4 ± 2.13%; Percentage binding, Rat plasma, 10 μM [10]: 94.0 ± 1.04%"
"Cc1ccc(Nc2nc(-c3cc(-c4ccccc4)no3)cs2)nc1 [IND33, (5-Methyl-pyridin-2-yl)-[4-(3-phenyl-isoxazol-5-yl)-thiazol-2-yl]-amine]",,,,,,,,,,,,,,,,,70 µM,225 µM,1 µM,< 1 µM,
"Cc1ccnc(Nc2nc(-c3ccc(-c4ccccn4)s3)cs2)c1 [IND81, (4-Methyl-pyridin-2-yl)-[4-(5-pyridin-2-yl-thiophen-2-yl)-thiazol-2-yl]-amine]",ring hydroxylation,23.2 ± 2.68%,84%,0.143 µM,0%,0.899 µM,66%,0.226 µM,0%,0%,0.664 µM,Unlikely (unlikely for values <5),41%,0.534 µM,43%,Unlikely (unlikely for values <5),3 µM,207 µM,78 µM,< 1 µM,"% Disappearance [3, 13]: 0%; % Disappearance [5]: 64%; Measured Conc. [5]: 0.238 µM; Δ % Disappearance [5]: 1.8%; CYP Involvement [6]: Likely (likely for values >10); % Disappearance [6]: 55%; Measured Conc. [6]: 0.300 µM; Δ % Disappearance [6]: 11%; CYP Involvement [7]: Likely (likely for values >10); % Disappearance [7]: 51%; Measured Conc. [7]: 0.324 µM; Δ % Disappearance [7]: 15%; brain tissue binding [8]: ~90%; fraction unbound at 4 h [9]: 0.06 to 0.09; Percentage binding, Rat plasma, 1 μM [10]: 94.2 ± 0.48%; Percentage binding, Rat plasma, 10 μM [10]: 95.5 ± 0.66%"
"Cc1ccnc(Nc2nc(-c3ccncc3)cs2)c1 [IND52, (4-Methyl-pyridin-2-yl)-(4-pyridin-4-yl-thiazol-2-yl)-amine]",,,,,,,,,,,,,,,,,2 µM,76 µM,215 µM,1 µM,
"c1ccc2cc(Nc3nc(-c4ccncc4)cs3)ncc2c1 [IND85, Isoquinolin-3-yl-(4-pyridin-4-yl-thiazol-2-yl)-amine]",,,,,,,,,,,,,,,,,3 µM,116 µM,196 µM,< 1 µM,
"COc1ccc(-c2csc(Nc3ccc4ccccc4n3)n2)cc1OC [IND47, [4-(3,4-Dimethoxy-phenyl)-thiazol-2-yl]-quinolin-2-yl-amine]",,,,,,,,,,,,,,,,,5 µM,52 µM,< 1 µM,< 1 µM,
